Assay results as given in patent US9079887B2, “Antiviral compounds” (priority 2012, dated 2015).
Where two headings read alike, the source gives them in different places.

Experiments:
Type in all cases: cell-based
[1] = system: stable HCV 2a JFH-1 Rluc replicon cells (L31 present in NS5A); test: HCV replicon RLuc reporter assay, genotype 2a JFH-1; conditions: Hepatitis C virus
Procedure: (§1) Antiviral potency (EC50) was determined using a Renilla luciferase (RLuc)-based HCV replicon reporter assay. To perform the assay for genotype 1 and 2a JFH-1, stable HCV 1a RLuc replicon cells (harboring a dicistronic genotype 1a H77 replicon that encodes a RLuc reporter), stable HCV 1b RLuc replicon cells (harboring a dicistronic genotype 1b Con1 replicon that encodes a RLuc reporter), or stable HCV 2a JFH-1 Rluc replicon cells (harboring a dicistronic genotype 2a JFH-1 replicon that encodes a RLuc reporter; with L31 present in NS5A) were dispensed into 384-well plates for EC50 assays. To perform the assay for genotype 2a (with M31 present in NS5A) or 2b, NS5A chimeric genotype 2a JFH-1 replicons that encodes a RLuc-Neo reporter and either genotype 2a J6 strain NS5A gene or genotype 2b MD2b-1 strain NS5A gene (both with M31 present) respectively, were either transiently transfected (t) into Huh-Lunet cells or were established as stably replicating replicon cells (s). Either cells were dispensed into 384-well plates for EC50 assays. To perform the assay for genotype 3 and 4, NS5A chimeric genotype 1b Con1 replicons that encodes a Pi-RLuc reporter and either genotype 3a S52 strain NS5A gene or genotype 4a ED43 strain NS5A gene respectively, were transiently transfected (t) into Huh-Lunet cells, which were subsequently dispensed into 384-well plates. Alternatively, stable HCV 3a RLuc replicon cells (s) (harboring a dicistronic genotype 3a S52 replicon that encodes an RLuc reporter), or stable HCV 4a RLuc replicon cells (s) (harboring a dicistronic genotype 4a ED43 replicon that encodes a RLuc reporter) were established in Huh-7-derived cells and dispensed into 384-well plates for EC50 assays. Compounds were dissolved in DMSO at a concentration of 10 mM and diluted in DMSO either manually or using an automated pipeting instrument. Serially 3-fold diluted compounds were either manually mixed with cell culture media and added to the seeded cells or directly added to the cells using an automated instrument. DMSO was used as a negative (solvent; no inhibition) control, and the protease inhibitor ITMN-191 was included at a concentration >100×EC50 as a positive control. 72 hours later, cells were lysed and Renilla luciferase activity quantified as recommended by the manufacturer (Promega-Madison, Wis.). Non-linear regression was performed to calculate EC50 values.

[2] = system: stable HCV 1a RLuc replicon cells (genotype 1a H77 replicon); test: HCV replicon RLuc reporter assay, genotype 1a; conditions: Hepatitis C virus, genotype 1a replicon
Procedure: as §1

[3] = HCV replicon assay, genotype 2b (stable); conditions: Hepatitis C virus, genotype 2a / genotype 2b
Procedure: as §1

[4] = HCV replicon assay, genotype 2a J6 (transient); conditions: Hepatitis C virus
Procedure: as §1

[5] = system: stable HCV 1b RLuc replicon cells (genotype 1b Con1 replicon); test: HCV replicon RLuc reporter assay, genotype 1b; conditions: Hepatitis C virus; genotype 1b replicon, 72 hours
Procedure: as §1

[6] = system: stable HCV 4a RLuc replicon cells (genotype 4a ED43 replicon); test: HCV replicon assay, genotype 4a (stable); conditions: Hepatitis C virus
Procedure: as §1

[7] = system: stable HCV 3a RLuc replicon cells (genotype 3a S52 replicon); test: HCV replicon assay, genotype 3a (stable); conditions: Hepatitis C virus
Procedure: as §1

Structure (SMILES) | EC50 ([1]; read-out: 2a JFH) [nM] | EC50 ([1]; read-out: 2a JFH (nM)) [nM] | EC50 [2] [nM] | EC50 ([2]; activity range) [nM] | EC50 ([3]; 2BS, read-out: 2b (s)) [nM] | EC50 ([3]; read-out: 2b (s) (nM)) [nM] | EC50 ([4]; read-out: 2a J6 (t)) [nM] | EC50 ([4]; read-out: 2a J6 (t) (nM)) [nM] | EC50 [5] [nM] | EC50 ([6]; read-out: 4a (s)) [nM] | EC50 ([6]; read-out: 4a (s) (nM)) [nM] | EC50 ([7]; read-out: 3a (s)) [nM] | EC50 ([7]; read-out: 3a (s) (nM)) [nM]
COC[C@H]1C[C@@H](c2ncc(-c3ccc(-c4ccc(-c5cnc([C@@H]6CC[C@H](C)N6C(=O)[C@@H](NC(=O)OC)C(C)C)[nH]5)cc4)cc3)[nH]2)N(C(=O)[C@@H](NC(=O)OC)C2CCOCC2)C1 [Example AN, Methyl [(1S)-2-[(2S,4S)-2-[5-(4′-{2-[(2S,5S)-1-{(2S)-2-[(methoxycarbonyl)-amino]-3-methylbutanoyl}-5-methylpyrrolidin-2-yl]-1H-imidazol-5-yl}biphenyl-4-yl)-1H-imidazol-2-yl]-4-(methoxymethyl)pyrrolidin-1-yl]-2-oxo-1-(tetrahydro-2H-pyran-4-yl)ethyl]carbamate] | < 0.1 | 0.027 | 0.037 | < 0.1 | 1 to 44 | 2.14 | 0.1 to 0.999 | 0.207 | 0.065 | < 0.1 | 0.035 | 1 to 44 | 2.19
COC[C@H]1C[C@@H](c2ncc(-c3ccc(-c4ccc(-c5cnc([C@@H]6CC[C@H](C)N6C(=O)[C@@H](NC(=O)OC)C6CCOCC6)[nH]5)cc4)cc3)[nH]2)N(C(=O)[C@@H](NC(=O)OC)C(C)C)C1 [Example AL, Methyl {(2S)-1-[(2S,4S)-2-{5-[4′-(2-{(2S,5S)-1-[(2S)-2-[(methoxycarbonyl)amino]-2-(tetrahydro-2H-pyran-4-yl)acetyl]-5-methylpyrrolidin-2-yl}-1H-imidazol-5-yl)biphenyl-4-yl]-1H-imidazol-2-yl}-4-(methoxymethyl)pyrrolidin-1-yl]-3-methyl-1-oxobutan-2-yl}carbamate] | < 0.1 | 0.035 | 0.052 | < 0.1 | 1 to 44 | 2.17 | < 0.1 | 0.084 | 0.074 | < 0.1 | 0.04 | 1 to 44 | 2.14
COC[C@H]1C[C@@H](c2ncc(-c3ccc(-c4ccc(-c5cnc([C@@H]6CC[C@H](C)N6C(=O)[C@@H](NC(=O)OC)C6CCOCC6)[nH]5)cc4)cc3)[nH]2)N(C(=O)[C@@H](NC(=O)OC)C2CCOCC2)C1 [Example AJ, Methyl [(1S)-2-{(2S,5S)-2-[5-(4′-{2-[(2S,4S)-1-[(2S)-2-[(methoxycarbonyl)amino]-2-(tetrahydro-2H-pyran-4-yl)acetyl]-4-(methoxymethyl)pyrrolidin-2-yl]-1H-imidazol-5-yl}biphenyl-4-yl)-1H-imidazol-2-yl]-5-methylpyrrolidin-1-yl}-2-oxo-1-(tetrahydro-2H-pyran-4-yl)ethyl]carbamate] | < 0.1 | 0.079 | 0.186 | 0.1 to 0.999 | 0.1 to 0.999 | 0.672 | 0.1 to 0.999 | 0.155 | 0.384 | 0.1 to 0.999 | 0.133 | 1 to 44 | 1.34
COC[C@H]1C[C@@H](c2nc(Cl)c(-c3ccc(-c4ccc(-c5cnc([C@@H]6CC[C@H](C)N6C(=O)[C@@H](NC(=O)OC)C(C)C)[nH]5)cc4)cc3)[nH]2)N(C(=O)[C@@H](NC(=O)OC)C(C)C)C1 [AI, Methyl (S)-1-((2S,4S)-2-(4-chloro-5-(4′-(2-((2S,4S)-1-((R)-2-(methoxycarbonylamino)-3-methylbutanoyl)-5-methylpyrrolidin-2-yl)-1H-imidazol-5-yl)biphenyl-4-yl)-1H-imidazol-2-yl)-4-(methoxymethyl)pyrrolidin-1-yl)-3-methyl-1-oxobutan-2-ylcarbamate] | < 0.1 | 0.075 | 0.034 | < 0.1 | 1 to 44 | 5.08 | – | – | 0.028 | < 0.1 | 0.018 | 1 to 44 | 40.8
COC[C@H]1C[C@@H](c2nc(Cl)c(-c3ccc(-c4ccc(-c5[nH]c([C@@H]6CC[C@H](C)N6C(=O)[C@@H](NC(=O)OC)C(C)C)nc5Cl)cc4)cc3)[nH]2)N(C(=O)[C@@H](NC(=O)OC)C(C)C)C1 [Example AG, Methyl (S)-1-((2S,4S)-2-(4-chloro-5-(4′-(4-chloro-2-((2S,4S)-1-((R)-2-(methoxycarbonylamino)-3-methylbutanoyl)-5-methylpyrrolidin-2-yl)-1H-imidazol-5-yl)biphenyl-4-yl)-1H-imidazol-2-yl)-4-(methoxymethyl)pyrrolidin-1-yl)-3-methyl-1-oxobutan-2-ylcarbamate] | < 0.1 | 0.05 | 0.022 | < 0.1 | 1 to 44 | 2.56 | – | – | 0.019 | < 0.1 | 0.011 | 1 to 44 | 17.6
COC[C@H]1C[C@@H](c2ncc(-c3ccc(-c4ccc(-c5[nH]c([C@@H]6CC[C@H](C)N6C(=O)[C@@H](NC(=O)OC)C(C)C)nc5Cl)cc4)cc3)[nH]2)N(C(=O)[C@@H](NC(=O)OC)C(C)C)C1 [AH, Methyl (S)-1-((2S,4S)-2-(5-(4′-(4-chloro-2-((2S,4S)-1-((R)-2-(methoxycarbonylamino)-3-methylbutanoyl)-5-methylpyrrolidin-2-yl)-1H-imidazol-5-yl)biphenyl-4-yl)-1H-imidazol-2-yl)-4-(methoxymethyl)pyrrolidin-1-yl)-3-methyl-1-oxobutan-2-ylcarbamate] | < 0.1 | 0.066 | 0.037 | < 0.1 | 1 to 44 | 7.3 | – | – | 0.04 | < 0.1 | 0.02 | 1 to 44 | 36.5
